Experimental data from ChEMBL document CHEMBL5209581, “Membrane potential based assay for SLC6A5 using HEK-293 SLC6A5 OE cells” (2022).

Target: T1, Sodium- and chloride-dependent glycine transporter 2 (Homo sapiens, UniProt Q9Y345)
T1 sequence (Q9Y345 whole entry): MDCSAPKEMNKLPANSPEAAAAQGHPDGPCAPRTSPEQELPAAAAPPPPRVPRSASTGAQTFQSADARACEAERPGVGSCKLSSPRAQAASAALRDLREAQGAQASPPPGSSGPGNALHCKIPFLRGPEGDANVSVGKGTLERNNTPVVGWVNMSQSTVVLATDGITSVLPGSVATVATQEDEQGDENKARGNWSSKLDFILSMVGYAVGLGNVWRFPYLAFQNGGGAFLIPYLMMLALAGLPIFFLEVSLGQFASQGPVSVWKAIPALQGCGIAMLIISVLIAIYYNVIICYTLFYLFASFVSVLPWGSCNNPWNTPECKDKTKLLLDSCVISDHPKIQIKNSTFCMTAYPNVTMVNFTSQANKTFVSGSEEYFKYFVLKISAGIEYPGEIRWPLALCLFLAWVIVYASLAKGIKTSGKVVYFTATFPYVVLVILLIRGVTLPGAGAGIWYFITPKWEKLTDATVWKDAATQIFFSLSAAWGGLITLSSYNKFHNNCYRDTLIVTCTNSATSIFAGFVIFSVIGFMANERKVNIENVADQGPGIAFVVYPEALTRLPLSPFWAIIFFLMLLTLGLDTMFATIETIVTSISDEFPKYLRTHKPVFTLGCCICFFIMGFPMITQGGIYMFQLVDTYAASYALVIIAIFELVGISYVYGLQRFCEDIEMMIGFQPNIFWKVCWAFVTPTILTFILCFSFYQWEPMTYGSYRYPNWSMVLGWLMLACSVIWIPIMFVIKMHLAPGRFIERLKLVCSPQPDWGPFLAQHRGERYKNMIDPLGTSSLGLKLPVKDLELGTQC
Description: Substrate uptake by the Glycine Transporter-2 (GlyT2, SLC6A5) as assessed by the fluorescent FLIPR membrane potential dye in HEK-293 JumpIN-SLC6A5 cells (PubChem AID: 1794825)

- EC50: 128 µM
SMILES: NCC(=O)O [GLYCINE]
